The text below walks through data of publication PMC5553068 (Bioorganic & medicinal chemistry, 2017).

One data set concerns the target T1, human renin (Homo sapiens, UniProt P00797).
T1 sequence (P00797 67-406): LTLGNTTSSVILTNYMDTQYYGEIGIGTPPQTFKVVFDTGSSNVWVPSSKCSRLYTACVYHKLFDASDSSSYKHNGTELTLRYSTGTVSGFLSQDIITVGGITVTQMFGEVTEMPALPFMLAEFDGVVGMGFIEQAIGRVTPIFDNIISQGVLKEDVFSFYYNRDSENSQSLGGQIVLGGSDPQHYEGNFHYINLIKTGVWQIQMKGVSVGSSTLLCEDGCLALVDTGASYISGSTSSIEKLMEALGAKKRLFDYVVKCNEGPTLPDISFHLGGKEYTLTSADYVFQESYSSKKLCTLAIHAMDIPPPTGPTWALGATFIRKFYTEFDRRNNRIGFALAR
As to conditions: for Ligand Efficiency: Table 3.

The nature of data set [1]: Rat in vivo pharmacokinetic studies. Details: species or system Sprague Dawley rats. As to conditions: for AUC: 10 mg/kg po dose, HCl salts, vehicle D5W, mean n = 3; for clearance / bioavailability: Sprague-Dawley, plasma; for clearance: iv, 1 mg/kg; for bioavailability: po, 10 mg/kg.
For data set [2] the following is noted: Table 7, literature comparators, no reference given; cited from earlier work.
A further data set relates to renin. As to conditions: ligand of the 2IKO X-ray structure; cited from earlier work.

`CCc1nc(N)cc(C)c1-c1cccc2c(C)c[nH]c12` [Compound 20, 6-Ethyl-4-methyl-5-(3-methyl-1H-indol-7-yl)pyridin-2-amine]: the “fold improvement in activity” value on human renin (going from 17 to 19 and then to 20) is listed as 36 fold.

Consider `CCc1nc(N)cc(OC)c1-c1ccc2c(c1)N(CCNC(C)=O)C(=O)C(C)(C)O2` [Compound 33, N-(2-(6-(6-Amino-2-ethyl-4-methoxypyridin-3-yl)-2,2-dimethyl-3-oxo-2H-benzo[b][1,4]oxazin-4(3H)-yl)ethyl)acetamide], for which, in data set [1], the AUC is reported as 1493 ngh/mL, the clearance amounted to 56 mL/min/kg and the bioavailability stood at 39%.

With `CCc1nc(N)cc(C)c1-c1ccc2c(c1)N(CCNC(C)=O)C(=O)C(C)(C)O2` [Compound 32, N-(2-(6-(6-Amino-2-ethyl-4-methylpyridin-3-yl)-2,2-dimethyl-3-oxo-2H-benzo[b][1,4]oxazin-4(3H)-yl)ethyl)acetamide], in data set [1], the AUC was determined as 1810 ngh/mL, the clearance came to 66 mL/min/kg and the bioavailability was found to be 58%.

Regarding `CCc1nc(N)cc(C)c1-c1ccc2c(c1)N(CCCOC)C(=O)C(C)(C)O2` [Compound 34, 6-(6-Amino-2-ethyl-4-methylpyridin-3-yl)-4-(3-methoxypropyl)-2,2-dimethyl-2H-benzo[b][1,4]oxazin-3(4H)-one], the “fold improvement in affinity vs 7b” value on human renin (6-ethyl-2-aminopyridine head group vs pyrimidine 7b, Table 5) is 2- to 3 fold.

With `COCCCN1CCCc2ccc(-c3c(C)cc(N)nc3C)cc21` [Compound 12, 5-(1-(3-Methoxypropyl)-1,2,3,4-tetrahydroquinolin-7-yl)-4,6-dimethylpyridin-2-amine], the “Ligand Efficiency” value on human renin stood at 0.27.

Turning to `CCc1nc(N)cc(OC)c1-c1ccc2c(c1)N(CCCOC)CCC2` [Compound 15, 6-Ethyl-4-methoxy-5-(1-(3-methoxypropyl)-1,2,3,4-tetrahydroquinolin-7-yl)pyridin-2-amine], the “Ligand Efficiency” value at human renin is 0.33.

In the case of `CCc1nc(N)cc(C)c1-c1ccc(F)c2c(C)c(CCOC)[nH]c12` [Compound 27, 6-Ethyl-5-(4-fluoro-2-(2-methoxyethyl)-3-methyl-1H-indol-7-yl)-4-methylpyridin-2-amine], in data set [1], the AUC came out at 473 ngh/mL, the clearance was 68 mL/min/kg and the bioavailability turned out to be 20%.

Regarding `CCc1nc(N)nc(N)c1-c1ccc2c(c1)N(CCCOC)CCC2` [Compound 6c, reference compound], at human renin, the “Ligand Efficiency” value was found to be 0.34.

Take `CCc1nc(N)cc(C)c1-c1ccc2c(c1)N(CCCOC)CCC2` [Compound 13, 6-Ethyl-5-(1-(3-methoxypropyl)-1,2,3,4-tetrahydroquinolin-7-yl)-4-methylpyridin-2-amine]: the “Ligand Efficiency” value at human renin came to 0.34.

On to `CCc1nc(N)nc(N)c1-c1ccc2c(c1)N(CCCOC)C(=O)C(C)(c1cc(F)cc(F)c1)O2` (centres unmarked) [Compound 7c], for which the “%F (rat)” value in data set [2] was 0.4%.

As for `CCc1nc(N)nc(N)c1-c1ccc(NCc2cc(F)cc(F)c2)cc1` [Compound 8], in the data set on renin, the IC50 was 4 µM.
